Measured values from ChEMBL document CHEMBL1201862, “PubChem BioAssay data set” (2004).
The source made the active and inactive calls.

Legend:
[1] = tested on: HEK293; assay: cells; type: functional, cell-based; conditions: Homo sapiens
[2] = tested on: HEK293; assay: NOD2 signaling inhibitors in MDP-stimulated cells, cell-based, uHTS, luminescence (AID 2001); type: functional; conditions: Homo sapiens
[3] = tested on: HEK293; assay: inhibition of NOD1-driven NF-kB reporter – cell-based, luminescence, uHTS, primary screen (AID 1578); type: functional; conditions: Homo sapiens
[4] = molecular target: T1, RNA-binding protein pos-1 (Caenorhabditis elegans, UniProt G5EF15); assay: disruptors of C. elegans POS-1 RNA interaction – biochemical, fluorescence polarization, dose response (AID 1964);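 further: purified POS-1 fused to maltose binding protein made in E. coli; potency of compounds blocking POS-1 binding to fluorescent RNA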
T1 sequence (G5EF15 whole entry): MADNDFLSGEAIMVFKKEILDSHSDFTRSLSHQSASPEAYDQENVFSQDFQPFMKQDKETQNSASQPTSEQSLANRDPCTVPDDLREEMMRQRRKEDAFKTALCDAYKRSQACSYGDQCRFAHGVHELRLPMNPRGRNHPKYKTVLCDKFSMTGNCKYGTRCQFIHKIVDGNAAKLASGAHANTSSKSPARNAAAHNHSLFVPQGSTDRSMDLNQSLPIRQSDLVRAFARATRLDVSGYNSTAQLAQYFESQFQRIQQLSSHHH

[5] = molecular target: Nucleotide-binding oligomerization domain-containing protein 2 (Homo sapiens, UniProt Q9HC29); assay: inhibition of NOD2-driven NF-kB reporter – cell-based, luminescence, uHTS, HEK293 (AID 1566); type: functional
Sequence of Nucleotide-binding oligomerization domain-containing protein 2 (Q9HC29 whole entry, the tested form may be a part): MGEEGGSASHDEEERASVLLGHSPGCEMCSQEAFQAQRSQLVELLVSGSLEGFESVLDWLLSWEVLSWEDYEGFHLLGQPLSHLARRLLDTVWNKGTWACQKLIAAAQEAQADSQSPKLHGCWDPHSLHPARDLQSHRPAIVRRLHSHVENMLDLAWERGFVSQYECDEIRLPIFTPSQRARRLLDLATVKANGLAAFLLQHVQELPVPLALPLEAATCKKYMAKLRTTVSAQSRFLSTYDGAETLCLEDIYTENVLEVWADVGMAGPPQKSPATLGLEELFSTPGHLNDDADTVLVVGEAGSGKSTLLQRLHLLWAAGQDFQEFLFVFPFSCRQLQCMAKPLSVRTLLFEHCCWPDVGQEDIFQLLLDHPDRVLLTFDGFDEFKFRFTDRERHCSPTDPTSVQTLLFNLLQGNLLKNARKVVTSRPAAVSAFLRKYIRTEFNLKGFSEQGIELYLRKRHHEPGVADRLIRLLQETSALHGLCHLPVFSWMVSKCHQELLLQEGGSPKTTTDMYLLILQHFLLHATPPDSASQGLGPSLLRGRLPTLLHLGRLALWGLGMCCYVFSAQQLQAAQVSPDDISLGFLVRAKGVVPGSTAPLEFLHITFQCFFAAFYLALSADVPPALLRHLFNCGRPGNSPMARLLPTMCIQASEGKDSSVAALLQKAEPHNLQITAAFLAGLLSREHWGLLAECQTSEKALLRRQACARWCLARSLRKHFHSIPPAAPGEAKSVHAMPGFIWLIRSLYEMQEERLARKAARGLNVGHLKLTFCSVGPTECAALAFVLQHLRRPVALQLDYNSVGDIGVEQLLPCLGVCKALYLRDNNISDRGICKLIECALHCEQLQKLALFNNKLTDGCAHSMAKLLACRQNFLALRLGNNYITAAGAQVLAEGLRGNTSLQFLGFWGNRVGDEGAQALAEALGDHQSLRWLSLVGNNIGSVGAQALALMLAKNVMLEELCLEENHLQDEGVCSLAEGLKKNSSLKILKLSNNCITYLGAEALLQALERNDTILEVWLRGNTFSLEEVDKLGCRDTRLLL

[6] = tested on: HEK293; assay: cells; type: functional, cell-based; conditions: Homo sapiens; remark: listed apart in the source
[7] = molecular target: T2, Zinc finger protein mex-5 (Caenorhabditis elegans, UniProt Q9XUB2); assay: potency of MEX-5 RNA-binding blockers – biochemical, C. elegans, fluorescence polarization, dose response (AID 1960)
T2 sequence (Q9XUB2 whole entry): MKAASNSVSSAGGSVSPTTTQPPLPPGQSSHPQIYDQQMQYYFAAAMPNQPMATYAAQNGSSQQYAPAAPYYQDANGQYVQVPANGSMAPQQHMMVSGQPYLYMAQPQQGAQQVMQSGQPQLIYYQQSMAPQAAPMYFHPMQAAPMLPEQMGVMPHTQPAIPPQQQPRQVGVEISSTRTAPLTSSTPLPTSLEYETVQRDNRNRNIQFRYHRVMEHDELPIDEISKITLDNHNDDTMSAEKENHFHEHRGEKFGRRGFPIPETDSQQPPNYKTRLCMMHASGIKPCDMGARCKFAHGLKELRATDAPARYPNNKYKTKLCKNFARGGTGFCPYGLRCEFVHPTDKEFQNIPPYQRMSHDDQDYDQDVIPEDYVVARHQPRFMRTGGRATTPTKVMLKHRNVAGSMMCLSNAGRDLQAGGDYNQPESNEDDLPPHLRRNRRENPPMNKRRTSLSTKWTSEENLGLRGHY

[8] = molecular target: T3, Microphthalmia-associated transcription factor (Homo sapiens, UniProt O75030); assay: reducers of TRPM1 reporter luminescence, concentration series – cell-based, SK-MEL-5, cherry-picked, set 3, MITF inhibitor project, dose response (AID 493073); type: functional;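 further: SK-MEL-5 melanoma cells with luciferase driven by the MITF target TRPM1 promoter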
T3 sequence (O75030 whole entry): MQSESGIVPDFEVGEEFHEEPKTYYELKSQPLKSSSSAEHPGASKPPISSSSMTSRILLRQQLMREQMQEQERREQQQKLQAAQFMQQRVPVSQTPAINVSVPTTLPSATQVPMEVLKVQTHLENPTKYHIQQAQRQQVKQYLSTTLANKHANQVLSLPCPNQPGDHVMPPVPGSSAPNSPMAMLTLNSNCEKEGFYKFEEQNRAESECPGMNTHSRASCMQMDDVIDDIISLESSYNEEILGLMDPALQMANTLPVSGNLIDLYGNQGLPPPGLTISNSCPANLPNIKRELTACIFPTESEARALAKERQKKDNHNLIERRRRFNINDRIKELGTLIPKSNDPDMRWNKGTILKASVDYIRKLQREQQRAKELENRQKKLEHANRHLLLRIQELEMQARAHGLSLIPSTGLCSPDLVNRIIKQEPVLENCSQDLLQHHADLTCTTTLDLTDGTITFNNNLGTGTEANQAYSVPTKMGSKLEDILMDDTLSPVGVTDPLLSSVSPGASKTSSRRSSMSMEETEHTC

[9] = tested on: Vero; assay: cells; type: functional; conditions: Chlorocebus sabaeus
[10] = viability loss in HeLa cells – cytotoxicity control for MgcRacGAP inhibitor project, dose response (AID 624300); type: functional
[11] = tested on: HEK293; assay: cells; type: functional, cell-based; conditions: Homo sapiens; remark: listed apart in the source
[12] = molecular target: T4, Dual specificity protein phosphatase 3 (Homo sapiens, UniProt P51452); assay: SAR VHR1 Fluorescent Assay for In Vitro dose response studies Set 2. [Related pubchem assays (depositor defined):AID1654, AID1661, AID1878]; type: functional
T4 sequence (P51452 whole entry): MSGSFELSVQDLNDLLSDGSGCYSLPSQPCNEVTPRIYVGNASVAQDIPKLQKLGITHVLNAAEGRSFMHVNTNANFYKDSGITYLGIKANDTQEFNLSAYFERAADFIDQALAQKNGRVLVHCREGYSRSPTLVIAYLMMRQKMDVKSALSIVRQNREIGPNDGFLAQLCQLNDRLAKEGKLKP

[13] = molecular target: Tyrosine-protein phosphatase non-receptor type 11 (Homo sapiens, UniProt Q06124); assay: PTPN11 enzyme inhibitors – biochemical, selectivity assay for STEP inhibitor project, dose response (AID 602367); type: functional; conditions: read-out: IC50_Mean
Sequence of Tyrosine-protein phosphatase non-receptor type 11 (Q06124 whole entry): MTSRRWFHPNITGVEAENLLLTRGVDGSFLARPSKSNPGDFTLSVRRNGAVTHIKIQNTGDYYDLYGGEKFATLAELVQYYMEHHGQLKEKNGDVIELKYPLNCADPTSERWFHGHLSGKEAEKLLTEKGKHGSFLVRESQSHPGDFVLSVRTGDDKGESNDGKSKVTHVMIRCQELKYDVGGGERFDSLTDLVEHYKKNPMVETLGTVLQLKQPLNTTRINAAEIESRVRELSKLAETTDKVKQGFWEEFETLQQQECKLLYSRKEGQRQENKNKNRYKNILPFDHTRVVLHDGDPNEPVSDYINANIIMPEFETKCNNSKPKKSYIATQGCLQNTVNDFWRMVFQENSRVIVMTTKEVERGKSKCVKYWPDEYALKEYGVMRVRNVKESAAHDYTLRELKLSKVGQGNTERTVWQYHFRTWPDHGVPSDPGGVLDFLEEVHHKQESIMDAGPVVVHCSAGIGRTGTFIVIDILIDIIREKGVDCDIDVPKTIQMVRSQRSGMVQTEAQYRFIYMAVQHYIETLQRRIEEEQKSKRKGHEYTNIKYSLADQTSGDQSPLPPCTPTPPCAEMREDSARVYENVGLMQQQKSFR

[14] = molecular target: T5, Tyrosine-protein phosphatase non-receptor type 7 (Homo sapiens, UniProt P35236); assay: SAR analysis of chemical inhibitors of HePTP using a Fluorescent assay - Set 2. [Related pubchem assays (depositor defined):AID1059, AID1077, AID1661, AID2085, AID521]; type: functional
T5 sequence (P35236 whole entry): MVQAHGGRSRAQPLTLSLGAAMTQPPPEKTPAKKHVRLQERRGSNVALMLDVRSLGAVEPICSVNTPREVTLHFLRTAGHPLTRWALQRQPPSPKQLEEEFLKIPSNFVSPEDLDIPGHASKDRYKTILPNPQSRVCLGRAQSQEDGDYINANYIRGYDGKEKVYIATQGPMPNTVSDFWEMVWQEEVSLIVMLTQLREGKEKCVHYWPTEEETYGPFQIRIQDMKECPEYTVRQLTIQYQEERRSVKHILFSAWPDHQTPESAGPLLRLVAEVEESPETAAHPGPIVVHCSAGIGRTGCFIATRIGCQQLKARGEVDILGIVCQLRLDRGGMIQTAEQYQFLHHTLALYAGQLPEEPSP

[15] = molecular target: Tyrosine-protein phosphatase non-receptor type 5 (Homo sapiens, UniProt P54829); assay: PTPN5 enzyme inhibition – biochemical, fluorescence intensity, uHTS hits, confirmation (AID 602372); type: functional; conditions: read-out: IC50_Mean
Sequence of Tyrosine-protein phosphatase non-receptor type 5 (P54829 whole entry): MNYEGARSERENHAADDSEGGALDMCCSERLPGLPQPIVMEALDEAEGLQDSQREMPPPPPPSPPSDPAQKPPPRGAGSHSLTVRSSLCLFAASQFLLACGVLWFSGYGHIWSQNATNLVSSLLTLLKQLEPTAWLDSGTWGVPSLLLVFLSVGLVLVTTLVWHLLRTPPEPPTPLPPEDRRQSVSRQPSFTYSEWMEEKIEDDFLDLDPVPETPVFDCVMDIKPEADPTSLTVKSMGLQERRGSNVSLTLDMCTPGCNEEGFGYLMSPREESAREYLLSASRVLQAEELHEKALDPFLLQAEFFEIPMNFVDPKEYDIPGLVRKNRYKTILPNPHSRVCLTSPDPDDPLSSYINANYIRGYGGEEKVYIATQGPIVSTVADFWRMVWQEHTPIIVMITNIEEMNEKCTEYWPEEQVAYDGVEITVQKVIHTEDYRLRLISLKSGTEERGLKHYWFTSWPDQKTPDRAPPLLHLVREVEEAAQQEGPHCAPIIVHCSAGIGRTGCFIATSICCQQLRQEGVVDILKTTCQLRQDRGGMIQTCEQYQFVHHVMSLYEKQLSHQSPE

[16] = molecular target: T4, Dual specificity protein phosphatase 3; assay: VHR phosphatase inhibition, dose response, selectivity assay for STEP inhibitor project, biochemical (AID 602374); type: functional; conditions: read-out: IC50_Mean

Row | SMILES | IC50 [1] | IC50 [2] | EC50 [3] | EC50 [4] | EC50 [5] | IC50 [6] | EC50 [7] | AC50 [8] | CC50 [9] | CC50 [10] | IC50 [11] | IC50 [12] | IC50 [13] | IC50 [14] | IC50 [15] | IC50 [16]
1 | C=CCN1C(=O)NC(=O)/C(=C/C=C/c2ccccc2)C1=O | > 20 µM (inactive) | 12.4 µM (inactive) | > 20 µM (inactive) | > 300 µM (not active) | > 20 µM (inactive) | 9.21 µM (active) | > 300 µM (not active) | 5.94 µM (active) | > 25 µM (active) | 75.4 µM (active) | > 20 µM (inactive) |  |  |  |  | 
2 | CN1CCN(C(S)=Nc2ccc(S(N)(=O)=O)cc2)CC1 |  |  |  |  |  |  |  |  |  |  |  | 15.4 µM (active) | 6.54 µM (active) | 27.4 µM (active) | 27.8 µM (inactive) | 1.32 µM (active)
3 | NS(=O)(=O)c1ccc(NC(=S)N2CCN(c3ccccc3)CC2)cc1 |  |  |  |  |  |  |  |  |  |  |  | 67.2 µM (active) |  | 72.8 µM (active) |  | 
